# Results published in ChEMBL document CHEMBL1201862, “PubChem BioAssay data set” (2004).
# Calls of active or inactive are those of the source.
# Legend:
# Cytochrome P450 3A4 = Cytochrome P450 3A4 (Homo sapiens, UniProt P08684); settings: Potency;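 note: confirmatory qHTS run detecting inhibitors and substrates of CYP3A4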
# [1] = molecular target: T1, Mannose-6-phosphate isomerase (Homo sapiens, UniProt P34949); test: MPI enzyme activity inhibition – biochemical, fluorescence intensity, coupled assay, primary screen (AID 1209)
# T1 sequence (P34949 whole entry): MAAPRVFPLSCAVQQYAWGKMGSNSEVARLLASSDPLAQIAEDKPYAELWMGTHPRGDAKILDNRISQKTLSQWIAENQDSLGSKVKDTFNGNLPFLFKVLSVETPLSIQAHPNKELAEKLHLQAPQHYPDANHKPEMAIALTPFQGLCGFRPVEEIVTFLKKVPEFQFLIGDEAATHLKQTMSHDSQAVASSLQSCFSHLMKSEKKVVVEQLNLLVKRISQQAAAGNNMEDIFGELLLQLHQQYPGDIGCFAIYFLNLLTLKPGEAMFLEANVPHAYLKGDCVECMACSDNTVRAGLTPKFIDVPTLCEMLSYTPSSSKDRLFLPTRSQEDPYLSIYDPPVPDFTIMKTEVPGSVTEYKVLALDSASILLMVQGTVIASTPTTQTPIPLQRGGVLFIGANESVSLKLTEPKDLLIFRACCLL
# [2] = molecular target: T1, Mannose-6-phosphate isomerase; test: MPI inhibition at elevated mannose 6-phosphate – biochemical, fluorescence intensity, high mannose 6-phosphate, primary screen (AID 1220)
# [3] = molecular target: T2, Apoptotic protease-activating factor 1 (Homo sapiens, UniProt O14727); assay type: functional
# T2 sequence (O14727 whole entry): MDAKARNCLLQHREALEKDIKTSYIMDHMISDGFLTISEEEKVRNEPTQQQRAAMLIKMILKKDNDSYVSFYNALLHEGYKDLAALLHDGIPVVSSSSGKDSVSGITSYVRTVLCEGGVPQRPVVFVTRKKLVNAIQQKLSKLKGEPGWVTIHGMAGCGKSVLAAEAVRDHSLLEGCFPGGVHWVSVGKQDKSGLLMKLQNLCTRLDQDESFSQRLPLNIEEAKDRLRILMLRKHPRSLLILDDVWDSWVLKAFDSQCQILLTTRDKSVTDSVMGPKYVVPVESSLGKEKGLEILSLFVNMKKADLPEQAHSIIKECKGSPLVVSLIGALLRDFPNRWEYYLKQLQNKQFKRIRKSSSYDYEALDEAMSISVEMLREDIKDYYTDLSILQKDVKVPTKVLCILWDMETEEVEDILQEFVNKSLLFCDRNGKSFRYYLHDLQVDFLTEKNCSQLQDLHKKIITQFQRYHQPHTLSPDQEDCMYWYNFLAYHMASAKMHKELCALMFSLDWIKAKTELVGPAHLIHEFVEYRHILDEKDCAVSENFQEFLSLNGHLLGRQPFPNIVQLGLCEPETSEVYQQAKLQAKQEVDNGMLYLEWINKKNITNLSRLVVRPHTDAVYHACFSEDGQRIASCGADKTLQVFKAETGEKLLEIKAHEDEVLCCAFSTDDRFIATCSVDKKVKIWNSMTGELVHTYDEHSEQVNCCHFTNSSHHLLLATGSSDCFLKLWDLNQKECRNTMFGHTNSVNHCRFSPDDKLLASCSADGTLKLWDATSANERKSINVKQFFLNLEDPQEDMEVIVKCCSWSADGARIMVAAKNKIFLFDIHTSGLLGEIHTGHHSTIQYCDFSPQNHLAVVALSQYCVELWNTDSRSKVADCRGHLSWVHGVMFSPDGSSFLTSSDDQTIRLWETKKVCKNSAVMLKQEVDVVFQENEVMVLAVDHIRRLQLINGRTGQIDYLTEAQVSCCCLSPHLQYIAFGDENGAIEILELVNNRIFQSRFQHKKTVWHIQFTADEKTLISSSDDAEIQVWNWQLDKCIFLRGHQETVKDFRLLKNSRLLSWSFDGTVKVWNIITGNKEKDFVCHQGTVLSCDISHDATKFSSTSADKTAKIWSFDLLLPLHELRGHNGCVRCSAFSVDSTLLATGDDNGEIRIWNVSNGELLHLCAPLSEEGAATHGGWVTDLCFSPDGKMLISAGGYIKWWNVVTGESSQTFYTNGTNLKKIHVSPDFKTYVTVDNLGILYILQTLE
# Protein RecA = molecular target: T3, Protein RecA (Mycobacterium tuberculosis, UniProt P9WHJ3); test: Fluorescence Cell-Free Homogeneous Dose Retest to Identify Inhibitors of RecA-Intein Splicing Activity. [Related pubchem assays (depositor defined):AID2097, AID2223, AID489010, AID492950]; assay type: functional
# T3 sequence (P9WHJ3 whole entry): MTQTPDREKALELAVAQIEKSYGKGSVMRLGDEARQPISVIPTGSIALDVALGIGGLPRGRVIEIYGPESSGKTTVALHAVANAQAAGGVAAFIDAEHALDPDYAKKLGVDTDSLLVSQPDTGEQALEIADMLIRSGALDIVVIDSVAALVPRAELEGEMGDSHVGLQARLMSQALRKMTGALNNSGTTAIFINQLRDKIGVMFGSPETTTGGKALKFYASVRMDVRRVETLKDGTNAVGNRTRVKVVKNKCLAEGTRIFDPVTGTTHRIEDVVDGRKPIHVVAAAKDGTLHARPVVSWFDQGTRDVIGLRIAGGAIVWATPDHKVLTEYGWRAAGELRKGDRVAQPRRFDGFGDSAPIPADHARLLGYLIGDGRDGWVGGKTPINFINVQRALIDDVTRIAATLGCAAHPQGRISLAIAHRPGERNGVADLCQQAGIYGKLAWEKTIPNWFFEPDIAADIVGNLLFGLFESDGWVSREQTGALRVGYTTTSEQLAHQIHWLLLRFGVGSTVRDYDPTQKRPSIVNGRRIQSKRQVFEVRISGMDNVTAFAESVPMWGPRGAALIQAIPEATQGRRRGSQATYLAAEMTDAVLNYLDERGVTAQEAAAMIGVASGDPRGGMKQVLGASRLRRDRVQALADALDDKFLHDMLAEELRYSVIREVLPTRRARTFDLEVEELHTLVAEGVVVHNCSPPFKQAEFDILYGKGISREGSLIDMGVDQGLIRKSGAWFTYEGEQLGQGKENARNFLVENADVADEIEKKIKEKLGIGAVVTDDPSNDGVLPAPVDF
# Cytochrome P450 2C9 [4] = molecular target: T4, Cytochrome P450 2C9 (Homo sapiens, UniProt P11712); settings: Potency
# Cytochrome P450 2C9 [5] = molecular target: T4, Cytochrome P450 2C9
# [6] = system: Streptococcus sp. 'group A'; test: Streptococcus pyogenes SK(-)GAS viability under kanamycin – luminescence, BacTiterGlo, confirmation, counter-screen for streptokinase expression inhibitor project, dose response (AID 1900); assay type: functional, organism-based
# [7] = Luminescence-based counterscreen assay for KLF5 inhibitors: dose response cell-based high throughput screening assay to identify cytotoxic compounds using the IEC-6 intestinal epithelial cell line. [Related pubchem assays: 1700 (Primary screen.), 1834 (Confirmation screen.), 1858 (Summary AID.), 1905 (Counterscreen.)]; assay type: functional
# Streptococcus = test: GAS UMAA2166 growth inhibition – luminescence, BacTiterGlo, counter-screen for streptokinase expression inhibitor project, dose response (AID 1915); assay type: functional, organism-based;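 note: potency for reduction of bacterial viability or growth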
# Nonstructural protein 1 = Nonstructural protein 1 (Influenza A virus, UniProt Q194T2); assay type: functional, Influenza A virus (A/California/07/2009(H1N1))
# [8] = molecular target: Heat shock protein HSP 90-alpha (Homo sapiens, UniProt P07900); assay type: functional, organism-based
# Vero = test: viability of Vero cells under compound – cytotoxicity control for flavivirus capping enzyme inhibitors (AID 588742); assay type: functional; settings: Chlorocebus sabaeus
# INS1 = test: INS-1E survival protection against cytokine death – cell-based, luminescence, retest, dose response (AID 449756); assay type: functional; settings: Rattus norvegicus;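 note: cell death triggered by IL-1 beta plus TNF-alpha plus IFN-gamma mixture; protective hits raise ATP signal compared with cytokine alone wells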
# [9] = molecular target: T5, Polyadenylate-binding protein 1 (Homo sapiens, UniProt P11940); test: MLLE binding blockers, Cy5 peptide tracer – biochemical, fluorescence polarization, Cy5-PAM2 peptide, secondary, miRNA deadenylation inhibitor project, dose response (AID 602260); assay type: functional; settings: read-out: IC50_Mean
# [10] = molecular target: T5, Polyadenylate-binding protein 1; test: MLLE domain peptide-binding blockers, IC50 – biochemical, fluorescence polarization, FITC-PAM2 peptide, dose response (AID 602259); assay type: functional; settings: read-out: IC50_Mean
# [11] = molecular target: Disintegrin and metalloproteinase domain-containing protein 17 (Homo sapiens, UniProt P78536); test: exosite inhibitors of ADAM17, dose response, biochemical (AID 743260)
# [12] = inhibition of ADAM10 peptide cleavage – biochemical, FRET peptide substrate, recombinant human ADAM10, selectivity assay for ADAM17 exosite inhibitor project, dose response (AID 743259);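 note: ADAM10 enzyme cleaving a FRET peptide substrate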
# [13] = Luminescence Cell-Based Dose Confirmation HTS to Identify Inhibitors of Platelet Dense Granule Release. [Related pubchem assays: 1663 (Primary HTS), 1678 (Summary of Project)]; assay type: functional
# [14] = HEK-293T viability loss after treatment – luminescence, T-cell screen hits, cytotoxicity control for TCR NF-kB inhibitor project, dose response (AID 489026); assay type: functional, cell-based;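 note: cells exposed to compound about 14 hours before the viability readout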
# HEK293 = test: cells; settings: Homo sapiens;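 note: cells exposed to compound for 14 hours overnight before viability readout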
# T4 sequence (P11712 whole entry): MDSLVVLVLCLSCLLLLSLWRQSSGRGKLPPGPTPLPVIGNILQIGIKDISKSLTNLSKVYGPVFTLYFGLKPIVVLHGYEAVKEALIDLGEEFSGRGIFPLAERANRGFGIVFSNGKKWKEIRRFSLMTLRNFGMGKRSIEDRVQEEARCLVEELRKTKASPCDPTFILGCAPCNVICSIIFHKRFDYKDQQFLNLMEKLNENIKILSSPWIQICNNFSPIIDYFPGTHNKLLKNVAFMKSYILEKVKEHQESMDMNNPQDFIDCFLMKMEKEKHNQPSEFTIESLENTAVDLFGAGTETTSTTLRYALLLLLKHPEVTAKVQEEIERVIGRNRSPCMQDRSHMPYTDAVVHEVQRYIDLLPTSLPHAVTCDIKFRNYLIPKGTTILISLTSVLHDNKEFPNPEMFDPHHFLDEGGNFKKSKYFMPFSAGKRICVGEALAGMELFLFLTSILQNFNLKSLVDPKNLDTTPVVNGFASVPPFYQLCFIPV
# T5 sequence (P11940 whole entry, the tested form may be a part): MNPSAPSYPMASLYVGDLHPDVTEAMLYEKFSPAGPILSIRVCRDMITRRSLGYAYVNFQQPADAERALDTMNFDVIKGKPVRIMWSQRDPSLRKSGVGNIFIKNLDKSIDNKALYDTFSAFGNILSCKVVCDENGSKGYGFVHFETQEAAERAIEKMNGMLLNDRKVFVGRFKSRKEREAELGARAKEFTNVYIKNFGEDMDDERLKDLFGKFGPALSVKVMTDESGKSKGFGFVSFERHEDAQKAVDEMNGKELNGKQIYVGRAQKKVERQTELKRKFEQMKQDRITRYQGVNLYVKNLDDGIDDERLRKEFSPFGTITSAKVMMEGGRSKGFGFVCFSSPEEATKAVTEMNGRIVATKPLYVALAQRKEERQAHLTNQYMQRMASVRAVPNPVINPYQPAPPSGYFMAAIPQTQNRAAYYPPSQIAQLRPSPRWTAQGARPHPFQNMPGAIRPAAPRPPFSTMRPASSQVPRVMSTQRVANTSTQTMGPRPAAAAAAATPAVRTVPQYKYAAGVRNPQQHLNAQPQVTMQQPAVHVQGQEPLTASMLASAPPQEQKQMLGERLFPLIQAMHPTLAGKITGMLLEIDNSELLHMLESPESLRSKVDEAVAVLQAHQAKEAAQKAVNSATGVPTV
# Cytochrome P450 3A4, sequence (P08684 whole entry): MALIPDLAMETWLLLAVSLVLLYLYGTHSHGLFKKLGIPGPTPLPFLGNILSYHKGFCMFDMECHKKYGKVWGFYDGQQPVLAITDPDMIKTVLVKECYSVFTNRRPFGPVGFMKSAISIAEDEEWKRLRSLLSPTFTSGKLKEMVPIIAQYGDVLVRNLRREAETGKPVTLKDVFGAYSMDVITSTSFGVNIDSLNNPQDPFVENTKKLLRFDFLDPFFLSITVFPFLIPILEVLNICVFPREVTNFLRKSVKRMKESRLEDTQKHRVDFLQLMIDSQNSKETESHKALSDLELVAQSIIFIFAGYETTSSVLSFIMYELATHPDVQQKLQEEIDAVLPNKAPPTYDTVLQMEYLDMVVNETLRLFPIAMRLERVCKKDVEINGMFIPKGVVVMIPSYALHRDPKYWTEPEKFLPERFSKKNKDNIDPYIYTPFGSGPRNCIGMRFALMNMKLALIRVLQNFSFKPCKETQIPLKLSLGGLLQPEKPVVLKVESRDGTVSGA
# Disintegrin and metalloproteinase domain-containing protein 17, sequence (P78536 whole entry, the tested form may be a part): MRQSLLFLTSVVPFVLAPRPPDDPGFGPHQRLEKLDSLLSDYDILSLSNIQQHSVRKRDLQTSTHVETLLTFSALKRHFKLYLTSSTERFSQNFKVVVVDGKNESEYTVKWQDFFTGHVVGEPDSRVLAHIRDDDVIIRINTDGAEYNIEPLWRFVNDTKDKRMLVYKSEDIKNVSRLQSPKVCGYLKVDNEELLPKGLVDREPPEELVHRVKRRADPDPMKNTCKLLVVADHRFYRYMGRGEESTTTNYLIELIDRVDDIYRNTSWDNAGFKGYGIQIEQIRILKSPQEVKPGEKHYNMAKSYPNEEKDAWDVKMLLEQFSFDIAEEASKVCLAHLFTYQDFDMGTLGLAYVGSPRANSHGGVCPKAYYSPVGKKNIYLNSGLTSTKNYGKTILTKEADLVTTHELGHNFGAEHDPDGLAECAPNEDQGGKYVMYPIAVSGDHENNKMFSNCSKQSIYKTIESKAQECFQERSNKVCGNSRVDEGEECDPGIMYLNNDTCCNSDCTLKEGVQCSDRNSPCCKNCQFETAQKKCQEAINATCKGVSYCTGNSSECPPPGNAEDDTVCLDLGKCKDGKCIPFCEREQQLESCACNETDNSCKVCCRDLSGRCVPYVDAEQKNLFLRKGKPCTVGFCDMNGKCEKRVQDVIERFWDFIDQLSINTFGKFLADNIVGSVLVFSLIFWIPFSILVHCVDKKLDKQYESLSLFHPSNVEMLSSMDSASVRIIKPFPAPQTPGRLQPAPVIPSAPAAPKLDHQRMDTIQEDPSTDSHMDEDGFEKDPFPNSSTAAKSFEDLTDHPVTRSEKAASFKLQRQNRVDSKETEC
# Nonstructural protein 1, sequence (Q194T2 whole entry): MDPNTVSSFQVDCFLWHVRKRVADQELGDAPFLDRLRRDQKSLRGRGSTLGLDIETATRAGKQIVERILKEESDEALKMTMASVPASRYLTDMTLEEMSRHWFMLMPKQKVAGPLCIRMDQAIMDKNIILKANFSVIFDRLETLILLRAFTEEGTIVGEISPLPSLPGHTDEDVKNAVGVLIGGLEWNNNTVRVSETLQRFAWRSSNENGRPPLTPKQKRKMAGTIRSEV
structure (smiles),measurement,setting,value
COC(=O)[C@@H]1C[C@@]2(O)[C@H](O)[C@H](O)[C@H](O)C[C@H]2N1Cc1ccc(-c2ccccc2)cc1,AC50,Cytochrome P450 3A4,15.8 µM (inconclusive)
c1cc2cn[nH]c2cc1NC1CCCCCC1,IC50,[1],> 50 µM (not active)
same,IC50,[2],> 50 µM (not active)
same,IC50,[3],1.94 µM (active)
same,EC50,Protein RecA,8.81 µM (active)
CC(C)(C)c1ccc(S(=O)(=O)/C=C\C#N)cc1,AC50,Cytochrome P450 2C9 [4],2.51 µM (inconclusive)
same,AC50,Cytochrome P450 2C9 [5],7.94 µM (inconclusive)
OCC1OC(c2ccc3c(c2)OCO3)C=CC1Oc1cc(Cl)cc(Cl)c1 (centres undefined),AC50,Cytochrome P450 2C9 [4],3.98 µM (inconclusive)
Cc1ccc(S(=O)(=O)Nc2cc(Cl)c(O)c3ncccc23)cc1,EC50,[6],8.9 µM (active)
same,IC50,[7],4.8 µM (active)
same,EC50,Streptococcus,9.72 µM (active)
same,IC50,Nonstructural protein 1,11.5 µM (active)
same,AC50,[8],2.38 µM (active)
same,CC50,Vero,5.28 µM (active)
same,AC50,INS1,2.4 µM (active)
same,IC50,[9],> 66 µM (inactive)
same,IC50,[10],> 66 µM (inactive)
same,IC50,[11],21.2 µM (inactive)
same,IC50,[12],11.1 µM (inactive)
CC(C)(C)c1ccc(C(=O)O/N=C(\N)c2ccccc2)cc1,EC50,[13],4.8 µM (active)
same,IC50,[7],5.77 µM (active)
same,IC50,[14],> 80 µM (inactive)
same,IC50,HEK293,5.99 µM (active)
COc1cc(O)c(C(=O)c2ccccc2)cc1O [CEAROIN],AC50,Cytochrome P450 3A4,0.794 µM (inconclusive)
